# Structures can show the parent of a compound that is named as a salt. Where two headings read alike, the source gives them in different places.
# Key:
# [1] = system: veratridine-induced 3H-glutamate release from brain nerve terminals (voltage-activated presynaptic Na channels); test: Inhibition of veratridine-induced 3H-glutamate release, rapid superfusion of synaptosomes; assay type: biochemical, rat; conditions: 50 μM veratridine-induced release, rat brain synaptosomes; for % Inhibition of ^3H-Glu Rel @ 1 μM (*veratridine-induced glutamate release assay): 1 μM compound; for % Inhibition of ^3H-Glu Rel @ 3 μM (*veratridine-induced glutamate release assay): 3 μM compound
# [2] = system: depolarization-induced 3H-glutamate release from brain nerve terminals; test: Inhibition of 3H-glutamate release, high [K+] depolarization, rapid superfusion of synaptosomes; assay type: biochemical; conditions: rat brain synaptosomes; for % Inhibition of ^3H-Glu Rel @ 3 μM: 3 μM compound; for % Inhibition of ^3H-Glu Rel @ 1 μM: 1 μM compound; for % Inhibition of ^3H-Glu Rel @ 0.3 μM: 0.3 μM compound
# [3] = target: Type II neuronal voltage-activated sodium channels (Rattus norvegicus, UniProt P04775); test: cell-based
# [4] = system: audiogenic seizures in DBA/2 mice; test: In vivo anticonvulsant activity in the DBA/2 mouse model (audiogenic seizures); conditions: 30 minutes prior to auditory stimulus
# Protocol: Compounds were tested for their effectiveness in preventing seizures in DBA/2 mice which have a unique sensitivity to auditory stimulation. Exposure to loud high-frequency sounds can trigger seizure activity in these animals. This sensitivity develops from postnatal day 12 and peaks around day 21 and slowly diminishes as the animals mature. The unusual response to auditory stimulation in this strain of mouse is believed to be due to a combination of early myelination (causing an unusually low excitatory threshold) and delayed development of inhibitory mechanisms. Glutamate, the predominant excitatory neurotransmitter, has been implicated in this response. Blockade of glutamate receptors of the NMDA and AMPA subtypes, prevents audiogenic seizures in these mice. Compounds that block the release of glutamate should similarly act to prevent seizure activity, and may be therapeutic in other neurologic disorders such as stroke, which also involves glutamate-mediated damage.
# Mice were injected intraperitoneally with the compound specified in Table V below or with vehicle control, 30 minutes prior to being placed in a bell jar and turning on the auditory stimulus (12 KHz sine wave at 110-120 db). Administered doses are specified in Table V as milligram of compound per kilogram bodyweight of mouse. The auditory stimulus was left on for 60 seconds and mice reactions were timed and recorded.
# Percentage inhibition was determined with reference to vehicle controls.
# [5] = veratridine (100 μM)-induced, tetrodotoxin-sensitive uptake, CHO cells expressing rat brain Type II Na channels, read-out: IC50, block of ^14C guanidinium uptake
# Type II neuronal voltage-activated sodium channels, sequence (P04775 whole entry): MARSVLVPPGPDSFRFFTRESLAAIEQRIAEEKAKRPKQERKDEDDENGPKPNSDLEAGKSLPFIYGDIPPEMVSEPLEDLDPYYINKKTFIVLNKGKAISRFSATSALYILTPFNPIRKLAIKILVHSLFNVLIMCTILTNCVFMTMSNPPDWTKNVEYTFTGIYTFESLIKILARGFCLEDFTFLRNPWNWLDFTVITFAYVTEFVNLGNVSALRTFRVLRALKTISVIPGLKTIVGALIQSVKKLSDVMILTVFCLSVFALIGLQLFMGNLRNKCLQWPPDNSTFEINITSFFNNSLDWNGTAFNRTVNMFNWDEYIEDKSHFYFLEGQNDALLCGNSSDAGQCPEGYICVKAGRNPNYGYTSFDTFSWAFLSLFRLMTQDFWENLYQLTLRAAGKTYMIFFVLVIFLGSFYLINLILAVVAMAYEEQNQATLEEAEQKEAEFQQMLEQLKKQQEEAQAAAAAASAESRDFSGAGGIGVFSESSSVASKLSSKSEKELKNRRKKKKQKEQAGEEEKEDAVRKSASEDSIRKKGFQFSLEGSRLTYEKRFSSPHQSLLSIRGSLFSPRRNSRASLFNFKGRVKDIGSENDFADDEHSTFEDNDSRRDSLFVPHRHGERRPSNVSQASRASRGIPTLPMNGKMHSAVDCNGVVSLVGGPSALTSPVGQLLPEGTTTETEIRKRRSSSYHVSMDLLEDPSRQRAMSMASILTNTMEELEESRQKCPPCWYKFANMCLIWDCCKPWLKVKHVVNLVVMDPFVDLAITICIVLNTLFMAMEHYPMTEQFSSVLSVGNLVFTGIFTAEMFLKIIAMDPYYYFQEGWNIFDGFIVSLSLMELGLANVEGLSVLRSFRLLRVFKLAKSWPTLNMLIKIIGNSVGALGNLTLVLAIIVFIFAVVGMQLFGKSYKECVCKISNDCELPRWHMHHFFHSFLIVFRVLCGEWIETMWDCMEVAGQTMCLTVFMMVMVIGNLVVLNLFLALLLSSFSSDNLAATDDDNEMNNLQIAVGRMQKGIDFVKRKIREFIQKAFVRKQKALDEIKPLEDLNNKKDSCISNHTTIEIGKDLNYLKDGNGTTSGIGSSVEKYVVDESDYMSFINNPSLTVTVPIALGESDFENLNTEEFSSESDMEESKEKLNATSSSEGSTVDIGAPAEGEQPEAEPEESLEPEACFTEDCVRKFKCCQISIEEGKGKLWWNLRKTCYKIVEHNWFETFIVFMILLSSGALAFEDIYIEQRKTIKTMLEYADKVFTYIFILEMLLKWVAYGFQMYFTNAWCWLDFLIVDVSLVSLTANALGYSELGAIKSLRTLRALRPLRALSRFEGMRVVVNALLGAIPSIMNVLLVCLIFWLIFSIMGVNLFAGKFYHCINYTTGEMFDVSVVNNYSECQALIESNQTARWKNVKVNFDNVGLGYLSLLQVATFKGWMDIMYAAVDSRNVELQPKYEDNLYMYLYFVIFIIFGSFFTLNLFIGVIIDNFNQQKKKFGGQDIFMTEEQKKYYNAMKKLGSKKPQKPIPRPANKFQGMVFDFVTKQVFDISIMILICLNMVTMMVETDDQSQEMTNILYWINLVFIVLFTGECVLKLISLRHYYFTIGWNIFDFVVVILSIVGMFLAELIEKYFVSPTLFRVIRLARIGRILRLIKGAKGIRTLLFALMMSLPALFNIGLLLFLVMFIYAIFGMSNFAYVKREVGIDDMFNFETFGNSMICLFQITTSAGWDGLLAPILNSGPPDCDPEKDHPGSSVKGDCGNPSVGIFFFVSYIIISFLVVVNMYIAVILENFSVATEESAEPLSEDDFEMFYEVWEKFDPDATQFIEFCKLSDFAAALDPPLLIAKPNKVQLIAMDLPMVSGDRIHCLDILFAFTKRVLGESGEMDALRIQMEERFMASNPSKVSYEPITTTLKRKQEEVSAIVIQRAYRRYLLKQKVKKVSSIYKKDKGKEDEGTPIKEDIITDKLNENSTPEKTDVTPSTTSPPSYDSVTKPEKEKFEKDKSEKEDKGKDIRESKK
compound,measurement,setting,value
"CCC(C)c1ccc(N2CCCN(c3ccc(C(C)CC)cc3)C2=N)cc1 (stereo not drawn) (as salt: HBr) [Example 8, N,N′-Bis-(4-sec-butylphenyl)-2-iminopyrimidazolidine.HBr]",melting point,,> 250 °C
"CCC(C)c1ccc(N(Cc2ccc(C(C)(C)C)cc2)C(=N)N)cc1 (stereo not drawn) (as salt: HCl) [Example 1, N-(4-sec-Butylphenyl)-N-(4-tert-butylbenzyl)guanidine.HCl]",melting point,,177 to 178 °C
"N=C(Nc1ccc2c3c(cccc13)CC2)NC(c1ccccc1)c1ccccc1 (as salt: HCl) [Example 3, N-(5-Acenaphthyl)-N′-benzhydrylguanidine.HCl]",melting point,,225 to 227 °C
"CCC(C)c1ccc(NC(=N)Nc2ccc(C(C)CC)cc2)cc1 (stereo not drawn) (as salt: HCl) [Example 4, N,N′-bis(4-sec-Butylphenyl)guanidine.HCl]",melting point,,113 to 115 °C
CCC(C)c1ccc(N(C)C(=N)N(C)c2ccc(C(C)CC)cc2)cc1 (stereo not drawn) (as salt: HCl) [Example 6],melting point,,65 to 66 °C
"CCC(C)c1ccc(NC(=N)N(C)c2ccc(C(C)CC)cc2)cc1.Cl (stereo not drawn) [Example 5, N,N′-bis(4-sec-Butylphenyl)-N-methyl guanidine.HCl]",% Inhibition of ^3H-Glu Rel @ 1 μM (*veratridine-induced glutamate release assay),[1],68* %
"CCC(C)c1ccc(N2CCCN(c3ccc(C(C)CC)cc3)C2=N)cc1 (stereo not drawn) [Example 8, N,N′-Bis-(4-sec-butylphenyl)-2-iminopyrimidazolidine.HBr]",% Inhibition of ^3H-Glu Rel @ 3 μM,[2],50%
same,IC50,[3],200 nM
same,Audiogenic Response % Inhib.,[4]; 2 mg/kg intraperitoneally,41%
same,Audiogenic Response % Inhib.,[4]; 4 mg/kg intraperitoneally,75%
"N=C(N=Cc1cccc2ccccc12)Nc1ccc2c3c(cccc13)CC2 [Example 10, N-(5-Acenaphthyl)-N′-[(1-naphthyl)-methylene]guanidine.CH3SO3H]",% Inhibition of ^3H-Glu Rel @ 1 μM (*veratridine-induced glutamate release assay),[1],24* %
same,% Inhibition of ^3H-Glu Rel @ 3 μM (*veratridine-induced glutamate release assay),[1],71* %
"CC(C)c1ccc(NC(=N)Nc2ccc3ccccc3c2)cc1 [Example 11, N-(2-Naphthyl)-N′-(4-isopropylphenyl)guanidine.HCl]",IC50,[3]; [5],900 nM
"N=C(Nc1ccc2c(c1)Cc1ccccc1-2)Nc1ccc2c(c1)Cc1ccccc1-2 [Example 12, N,N′-Bis(2-fluorenyl)guanidine.HBr]",IC50,[3]; [5],1500 nM
"CC(C)(C)c1ccc(NC(=N)Nc2ccc(Cl)c(Cl)c2Cl)cc1.Cl [Example 14, N-(4-tert-Butylphenyl)-N′-(2,3,4-trichlorophenyl)guanidine.HCl]",% Inhibition of ^3H-Glu Rel @ 3 μM,[2],63%
same,IC50,[3]; [5],1800 nM
"N=C(Nc1ccc2ccccc2c1)NC1C2CC3CC(C2)CC1C3 (stereo not drawn) [Example 16, N-(2-Naphthyl)-N′-(2-adamantyl)guanidine.HCl]",IC50,[3]; [5],500 nM
"CC(C)c1ccc(CN(C(=N)N)c2ccc(C3CCCCC3)cc2)cc1 [Example 20, N-(4-Cyclohexylphenyl)-N-(4-isopropylbenzyl)guanidine.HCl]",IC50,[3]; [5],900 nM
"CC(C)(C)c1ccc(CN(C(=N)N)c2ccc(C3CCCCC3)cc2)cc1 [Example 21, N-(4-Cyclohexylphenyl)-N-(4-tert-butylbenzyl)guanidine.HCl]",IC50,[3]; [5],1900 nM
"CC(C)(C)c1ccc(CN(C(=N)N)c2ccc3c(c2)Cc2ccccc2-3)cc1 [Example 22, N-(2-Fluorenyl)-N-(4-tert-butylbenzyl)guanidine.HCl]",IC50,[3]; [5],500 nM
"CCC(C)c1ccc(N(C/C=C/c2ccccc2)C(=N)N)cc1.Cl (stereo not drawn) [Example 23, N-(4-sec-Butylphenyl)-N-(trans-cinnamyl)guanidine.HCl]",% Inhibition of ^3H-Glu Rel @ 3 μM (*veratridine-induced glutamate release assay),[1],33* %
"CCCCOc1ccc(N(Cc2ccc(C(C)(C)C)cc2)C(=N)N)cc1.Cl [Example 24, N-(4-n-Butoxyphenyl)-N-(4-tert-butylbenzyl)guanidine.HCl]",% Inhibition of ^3H-Glu Rel @ 1 μM (*veratridine-induced glutamate release assay),[1],62* %
same,IC50,[3]; [5],1800 nM
"CC(C)(C)c1ccc(CN(C(=N)N)c2ccc3c(c2)CCC3)cc1 [Example 26, N-(5-Indanyl)-N-(4-tert-butylbenzyl)guanidine.HCl]",IC50,[3]; [5],700 nM
"CC(C)(C)c1ccc(CN(C(=N)N)c2cccc(OC(F)(F)F)c2)cc1.Cl [Example 27, N-(3-Trifluoromethoxyphenyl)-N-(4-tert-butylbenzyl)guanidine.HCl]",% Inhibition of ^3H-Glu Rel @ 1 μM,[2],24%
same,IC50,[3]; [5],1200 nM
"Cl.N=C(Nc1ccc(OCc2ccccc2)cc1)Nc1cccc(OCc2ccccc2)c1 [Example 42, N-(3-Benzyloxyphenyl)-N′-(4-benzyloxyphenyl)guanidine.HCl]",% Inhibition of ^3H-Glu Rel @ 0.3 μM,[2],54%
same,% Inhibition of ^3H-Glu Rel @ 1 μM,[2],90%
same,% Inhibition of ^3H-Glu Rel @ 3 μM (*veratridine-induced glutamate release assay),[1],60* %
same,IC50,[3]; [5],700 nM
"Cl.N=C(NCCCc1ccccc1)Nc1ccc2c3c(cccc13)CC2 [Example 43, N-(5-Acenaphthyl)-N′-(3-phenylpropyl)guanidine.HCl]",% Inhibition of ^3H-Glu Rel @ 3 μM,[2],60%
same,% Inhibition of ^3H-Glu Rel @ 1 μM (*veratridine-induced glutamate release assay),[1],43* %
"CC(CNC(=N)Nc1ccc2c3c(cccc13)CC2)c1ccccc1.Cl (stereo not drawn) [Example 44, N-(5-Acenaphthyl)-N′-(2-methyl-2-phenylethyl)guanidine.HCl]",% Inhibition of ^3H-Glu Rel @ 1 μM (*veratridine-induced glutamate release assay),[1],43* %
same,% Inhibition of ^3H-Glu Rel @ 3 μM (*veratridine-induced glutamate release assay),[1],71* %
"CC(C)(C)c1ccc(CN(C(=N)N)c2cccc(I)c2)cc1 [Example 48, N-(3-Iodophenyl)-N-(4-tert-butylbenzyl)guanidine.HCl]",% Inhibition of ^3H-Glu Rel @ 1 μM (*veratridine-induced glutamate release assay),[1],23* %
same,IC50,[3],400 nM
"CC(C)(C)c1ccc(CN(C(=N)N)c2ccc(Cl)c3ccccc23)cc1 [Example 49, N-(4-Chloro-1-naphthyl)-N-(4-tert-benzyl)guanidine.HCl]",% Inhibition of ^3H-Glu Rel @ 1 μM (*veratridine-induced glutamate release assay),[1],32* %
same,IC50,[3],2200 nM
"CC(C)(C)c1ccc(CN(C(=N)NN2CCOCC2)c2ccc(OCc3ccccc3)cc2)cc1.Cl [Example 79, N-(4-Benzyloxyphenyl)-N-(4-tert-butylbenzyl)-N′-(4-morpholinyl)guanidine.HCl]",% Inhibition of ^3H-Glu Rel @ 0.3 μM,[2],77%
same,Audiogenic Response % Inhib.,[4]; 20 mg/kg intraperitoneally,41%
same,Audiogenic Response % Inhib.,[4]; 40 mg/kg intraperitoneally,68%
"CCCCc1ccc(NC(=N)Nc2ccc(OCc3ccccc3)cc2)cc1.Cl [Example 104, N-(4-Benzyloxyphenyl)-N′-(4-butylphenyl)guanidine.HCl]",% Inhibition of ^3H-Glu Rel @ 0.3 μM,[2],76%
same,Audiogenic Response % Inhib.,[4]; 20 mg/kg intraperitoneally,40%
same,Audiogenic Response % Inhib.,[4]; 40 mg/kg intraperitoneally,90%
"CC(C)(C)c1ccc(NC(=N)Nc2cccc(COCc3ccccc3)c2)cc1.CS(=O)(=O)O [Example 106, N-3-(Benzyloxymethyl)phenyl-N′-(4-tert-butylphenyl)guanidine.mesylate]",% Inhibition of ^3H-Glu Rel @ 0.3 μM,[2],48%
same,Audiogenic Response % Inhib.,[4]; 40 mg/kg intraperitoneally,93%
"CC(C)(C)c1ccc(NC(=N)Nc2cccc(OCc3ccccc3)c2)cc1.CS(=O)(=O)O [Example 108, N-(3-Benzyloxy)phenyl-N′-(4-tert-butylphenyl)guanidine.mesylate]",% Inhibition of ^3H-Glu Rel @ 0.3 μM,[2],49%
same,Audiogenic Response % Inhib.,[4]; 40 mg/kg intraperitoneally,80%
"CCCCc1ccc(NC(=N)N(C)c2ccc(OCc3ccccc3)cc2)cc1.CS(=O)(=O)O [Example 110, N-(4-Benzyloxyphenyl)-N-methyl-N′-(4-butylphenyl)guanidine.mesylate]",% Inhibition of ^3H-Glu Rel @ 0.3 μM,[2],77%
same,Audiogenic Response % Inhib.,[4]; 20 mg/kg intraperitoneally,42.3%
same,Audiogenic Response % Inhib.,[4]; 40 mg/kg intraperitoneally,92.5%
N-(4-sec-Butylphenyl)-N-(4-t-butylbenzyl)-N′-pyrrolidinylguanidine.HCl [Example 72],% Inhibition of ^3H-Glu Rel @ 0.3 μM,[2],48%
same,Audiogenic Response % Inhib.,[4]; 20 mg/kg intraperitoneally,52%
same,Audiogenic Response % Inhib.,[4]; 40 mg/kg intraperitoneally,81%

# Reference: patent publication US6787569B1, “Therapeutic guanidines” (Cambridge NeuroScience, Inc., priority 1994, dated 2004)
